According to patent US8247211B2, “Glycopeptide antibiotics” (American Cyanamid Company, priority 2001, dated 2012):
In brackets after ≈: the same amount, converted by molar mass.

What was measured:
[1] = tested on: Enterococcus faecalis (GC 2246), vancomycin resistant strain; assay: Acute lethal infection in mice (ED50); format: in vivo; details: female CD-1 mice, intraperitoneal challenge, intravenous dose 30 min. after infection, 7 day survival ratios
Outline: (§1)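 IP bacterial challenge, female CD-1 mice; inoculum lethal to untreated controls in 24-48 hr. IV dosing in saline or 5% dextrose 30 min post-infection, 5 mice/dose. ED50 from 7-day survival, 3 tests pooled.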

[2] = tested on: Staphylococcus aureus-SMITH (GC 4543); assay: Acute lethal infection in mice (ED50); format: in vivo; details: female CD-1 mice, intraperitoneal challenge, intravenous dose 30 min. after infection, 7 day survival ratios
Outline: as §1

[3] = tested on: Escherichia coli; assay: In vitro antibacterial evaluation: minimum inhibitory concentration (MIC), broth dilution method; format: cell-based; details: 5×10^5 CFU/mL, 18 hours at 35° C.
Outline: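 Inoculum: 5×10^5 CFU/mL. Range: 64-0.06 μg/mL. Medium: Muller-Hinton II […]; NCCLS M7-A2 broth dilution. Endpoint: lowest concentration inhibiting growth. Strains include methicillin-, penicillin- and/or vancomycin-resistant clinical isolates.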

[4] = tested on: Enterococcus sp.; assay: as above; format: cell-based; details: broth dilution, 5×10^5 CFU/mL, 18 hours at 35° C.
Outline: (§2)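 NCCLS M7-A2 broth dilution; Muller-Hinton II […]; 5×10^5 CFU/mL; 64-0.06 μg/mL. MIC = lowest concentration with no growth.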

[5] = tested on: Streptococcus sp.; assay: as above; format: cell-based; details: broth dilution, 5×10^5 CFU/mL, 18 hours at 35° C.
Outline: as §2

[6] = tested on: Staphylococcus sp.; assay: as above; format: cell-based; details: for MIC Staphylococcus aureus-SMITH (GC 4543): strain GC 4543; for MIC Staphylococcus haemolyticus (GC 4546): strain GC 4546; for MIC Coagulase Negative Staphylococcus (GC 4547): strain GC 4547; for MIC Coagulase Negative Staphylococcus (GC 4548): strain GC 4548; for MIC Coagulase Negative Staphylococcus (GC 4549): strain GC 4549; for MIC Coagulase Negative Staphylococcus (GC 4551): strain GC 4551; for MIC Coagulase Negative Staphylococcus (ID-3941): strain ID-3941
Outline: as §2

[7] = broth dilution, 18 hours at 35° C.

In the case of `CCCC(CCC)C(=O)OCC1OC(OC2C(CO)OC(Oc3ccc(CC4NC(=O)C(C(C)c5ccccc5)NC(=O)CNC(=O)C(CO)NC(=O)C(C(O)C5CNC(=N)N5C5OC(CO)C(O)C(O)C5O)NC(=O)C(C(O)C5CNC(=N)N5)NC4=O)cc3)C(O)C2O)C(O)C(O)C1O` (stereo not drawn) [Example 99c, Cyclo[glycyl-β-methylphenylalanyl-O-[4-O-[6-O-(2-propylpentanoyl)hexopyranosyl]-hexopyranosyl]tyrosyl-3-(2-iminoimidazolidin-4-yl)seryl-3-(3-hexopyranosyl-2-iminoimidazolidin-4-yl)serylseryl]], the median effective dose (ED50), Enterococcus faecalis (GC 2246) [1] is reported as 4.3 mg/kg, the median effective dose (ED50), Staphylococcus aureus-SMITH (GC 4543) [2] is reported as 0.52 mg/kg and the “MIC Escherichia coli (ATCC 25922)” value [3] is reported as 64 µg/mL (≈ 45 µM). For the same compound, the “MIC Enterococccus avium (GC 4558)” value [4] was 4 µg/mL (≈ 2.81 µM), the “MIC Enterococccus faecalis (ATCC 29212)” value [4] was 4 µg/mL (≈ 2.81 µM) and the “MIC Enterococccus faecalis (GC 4552)” value [4] was 4 µg/mL (≈ 2.81 µM). For the same compound, the “MIC Enterococccus faecalis (GC 4553)” value [4] was 4 µg/mL (≈ 2.81 µM), the “MIC Enterococccus faecalis (GC 4554)” value [4] was 4 µg/mL (≈ 2.81 µM) and the “MIC Enterococccus faecium (GC 2243)” value [4] was 4 µg/mL (≈ 2.81 µM). The “MIC Enterococccus faecium (GC 4556)” value [4] was 4 µg/mL (≈ 2.81 µM), the “MIC Enterococccus faecium (GC 4557)” value [4] was 2 µg/mL (≈ 1.41 µM) and the “MIC Enterococcus faecalis (GC 2242)” value [4] was 4 µg/mL (≈ 2.81 µM). The “MIC Streptococcus agalactiae (GC 4564)” value [5] was under 0.5 µg/mL, the “MIC Streptococcus pneumoniae (GC 4565)” value [5] was under 0.5 µg/mL and the “MIC Streptococcus pyogenes (ID-3187)” value [5] was under 0.5 µg/mL. The “MIC Staphylococcus aureus (ATCC 29213)” value ([6]; strain ATCC 29213) was 1 µg/mL (≈ 0.703 µM), the “MIC Staphylococcus aureus (GC 1131)” value ([6]; strain GC 1131) was 2 µg/mL (≈ 1.41 µM) and the “MIC Staphylococcus aureus (GC 4541)” value ([6]; strain GC 4541) was 2 µg/mL (≈ 1.41 µM). The “MIC Staphylococcus aureus (GC 4542)” value ([6]; strain GC 4542) was 1 µg/mL (≈ 0.703 µM), the “MIC Staphylococcus aureus-SMITH (GC 4543)” value ([6]; 18 hours at 35° C.) was 1 µg/mL (≈ 0.703 µM) and the “MIC Staphylococcus aureus-SMITH (GC 4543)” value [6, 7] was 1 µg/mL (≈ 0.703 µM). The “MIC Staphylococcus aureus (GC 4544)” value ([6]; strain GC 4544) was 2 µg/mL (≈ 1.41 µM), the “MIC Staphylococcus aureus (GC 4545)” value ([6]; strain GC 4545) was 1 µg/mL (≈ 0.703 µM) and the “MIC Staphylococcus haemolyticus (GC 4546)” value [6] was 1 µg/mL (≈ 0.703 µM). For the same compound, the “MIC Staphylococcus haemolyticus (GC 4546)” value [6, 7] was 1 µg/mL (≈ 0.703 µM), the “MIC Coagulase Negative Staphylococcus (GC 4547)” value [6] was 1 µg/mL (≈ 0.703 µM) and the “MIC Coagulase Negative Staphylococcus (GC 4547)” value [6, 7] was 1 µg/mL (≈ 0.703 µM). For the same compound, the “MIC Coagulase Negative Staphylococcus (GC 4548)” value [6] was 1 µg/mL (≈ 0.703 µM), the “MIC Coagulase Negative Staphylococcus (GC 4548)” value [6, 7] was 1 µg/mL (≈ 0.703 µM) and the “MIC Coagulase Negative Staphylococcus (GC 4549)” value [6] was 1 µg/mL (≈ 0.703 µM). For the same compound, the “MIC Coagulase Negative Staphylococcus (GC 4549)” value [6, 7] was 1 µg/mL (≈ 0.703 µM), the “MIC Coagulase Negative Staphylococcus (GC 4551)” value [6] was 2 µg/mL (≈ 1.41 µM) and the “MIC Coagulase Negative Staphylococcus (GC 4551)” value [6, 7] was 2 µg/mL (≈ 1.41 µM). The “MIC Coagulase Negative Staphylococcus (ID-3941)” value [6] was 1 µg/mL (≈ 0.703 µM) and the “MIC Coagulase Negative Staphylococcus (ID-3941)” value [6, 7] was 1 µg/mL (≈ 0.703 µM).
